Patent publication US6670378B2, “Method of treating Parkinson's disease” (Pharmacia & Upjohn Company, priority 2001, dated 2003)

Assays:
[1] = tested on: 6-OH-dopamine lesioned rats; assay: L-DOPA induced behavioral sensitization (contralateral rotations) in unilaterally 6-OH-dopamine lesioned rats; assay type: in vivo, Male Sprague-Dawley rats
Experimental: Repeated administration of dopamine agonists to 6-OH-dopamine lesioned rats results in behavioral sensitization or enhanced rotational behavior in the rats. This effect is believed to mirror the development of motor complications including L-DOPA induced involuntary movements such as dyskinesias in Parkinson's Disease patients.
Male Sprague-Dawley rats having lesion surgery were provided. […] The rats were anesthetized with 60 mg/kg i.p. sodium pentobarbital and then placed in a stereotaxic apparatus. A small hole was drilled through the skull of the rats and a 30-gauge stainless tubing was lowered to the right (one study) or left (two studies) medial forebrain bundle. 8 μg/4 μL (8μ free base) of 6-OH-dopamine solution was injected into the medial forebrain bundle at a rate of 1 μL/min. Following surgery, the incision was closed with clips and ointment containing a local anesthetic/antibiotic was applied to the incision area. The rats were returned to their home cages and allowed one week to recover from surgery.
The rats were group housed in wire mesh hanging cages with free access to food and water and kept on 12-hour light:12-hour dark cycles with the light being on from 6:00 a.m. to 6:00 p.m. All behavioral testing was done between 9:00 a.m. to 6:00 p.m.
Two to three weeks after the surgery, the rats were screened to assess the degree of lesion by measuring their net turning response to a single dose of 0.1 mg/kg s.c. of apomorphine HCl in 0.9% saline. The total turns were recorded in discrete 10 minute intervals. Each rat was connected by a lightweight harness and tether to a rotometer comprising a swivel with a mechanical counter at the top of a clear plastic cylindrical cage. The rats were used for the experiments if they had at least 30 contralateral turns in 10 minutes, with contralateral being away from the side of the lesion. In addition to screening out incomplete lesions, the response to apomorphine was used to separate the rats into balanced treatment groups, prior to the start of chronic dosing. The rats were ranked by cumulative net turning response and an equal number of high and low responders were placed in each treatment group.
All of the injections were given in a volume of 2 ml/kg and, with the exception of L-DOPA+benserazide 15+5 mg/kg, i.p., all injections were subcutaneous. All chronic treatment was given bid, 6-8 hours apart. […] S-(−)-3-[3-(methylsulfonyl)phenyl]-1-propyl-piperidine was dissolved in 0.9% sterile saline and administered at either 10 or 30 mg/kg subcutaneously 20 minutes before L-DOPA or together with the L-DOPA. The basal turning measurement started immediately after the rats received the first injections on day 1 with the activity being measured for 4-6 hours after dosing. The turning activity was measured again on days 7 and 14 and compared to the activity on day 1. […] Analysis of variance was used for statistical calculations and probability levels of <0.05 was regarded as being statistically significant.

[2] = Plasma/blood levels of the piperidine derivative and its N-dealkylated metabolite after two weeks of chronic dosing (HPLC-MS/MS); assay type: in vivo, Male Sprague-Dawley rats; conditions: plasma one hour after evening dose
Experimental: In order to perform the brain monoamine neurochemistry analysis, the brains were harvested following 14 days of chronic drug treatment. This was performed by decapitating the rats one hour after the evening drug administration, collecting the trunk blood into EDTA-treated tubes, immediately removing the brains, freezing the brains in small aluminum pans on dry ice and then storing at −80° C. […] Blood was spun and plasma was frozen at −80° C. for analysis of S-(−)-3-[3-(methylsulfonyl) phenyl]-1-propyl-piperidine and its major N-dealkylated metabolite. Plasma concentrations of S-(−)-3-[3-(methylsulfonyl)phenyl]-1-propyl-piperidine and its despropyl metabolite were quantitated using on-line high performance liquid chromatography (HPLC) tandem mass spectroscopy (MS/MS) with an atmospheric pressure chemical ionization (APCI) interface. […] S-(−)-3-[3-(methylsulfonyl)phenyl]-1-propyl-piperidine (0.1 μg/mL, 25 μL) were quantitatively added to 100 μL of plasma sample. […] The linear range of the calibration curve calculated in plasma was 0.02 nmol/mL to 40 nmol/mL for S-(−)-3-[3-(methylsulfonyl) phenyl]-1-propyl-piperidine and 00.01 nmol/mL to 20 nmol/mL for its N-dealkylated metabolite. […] Product ions with m/z 173 were monitored following CID of the protonated stable isotope (m/z 286). […] Study sample concentrations were calculated by reference to this equation.

[3] = tested on: unilaterally dopamine-lesioned monkeys; conditions: cited from earlier work
[4] = tested on: rotational behavior induced by apomorphine, L-DOPA and quinpirole; conditions: in vivo; cited from earlier work
[5] = Post mortem brain (prefrontal cortex) levels of L-DOPA after 14 days of chronic treatment; conditions: L-DOPA alone vs L-DOPA combined with the piperidine derivative
Experimental: In order to perform the brain monoamine neurochemistry analysis, the brains were harvested following 14 days of chronic drug treatment. This was performed by decapitating the rats one hour after the evening drug administration, collecting the trunk blood into EDTA-treated tubes, immediately removing the brains, freezing the brains in small aluminum pans on dry ice and then storing at −80° C. Brain levels of L-DOPA and dopamine were analyzed by means of liquid chromatography and electrochemical detection according to standard methodology described in the literature.
After two weeks of the administering of the L-DOPA and benserazide, tissues were taken post-mortem from the unilateral striatum and prefrontal cortex and analyzed for monoamines and their metabolite levels.

| Structure (SMILES) | behavioral sensitization induced by L-DOPA (enhanced number of contralateral rotations) ([1]; 10 or 30 mg/kg s.c. bid, 20 minutes before or together with L-DOPA+benserazide 15+5 mg/kg i.p., days 7 and 14 vs day 1) | antagonism of basal rotational response induced by L-DOPA ([1]; 10 or 30 mg/kg s.c. with L-DOPA+benserazide 15+5 mg/kg i.p., both experiments) | rotational behavior or akinesia induced by the compound by itself ([1]; compound alone, s.c.) | time course of antagonism of L-DOPA sensitization (simultaneous vs 20 minutes before L-DOPA) ([1]; given simultaneously with L-DOPA (FIG. 2) vs 20 minutes before (FIG. 1)) | effect of chronic treatment with L-DOPA on blood levels [2] | L-DOPA-induced contraversive turning behavior [3] | motor impairment such as akinesia or dystonia [4] | rotational behavior induced by apomorphine, L-DOPA and quinpirole [4] | effect of co-treatment on brain levels of L-DOPA [5] | rotational behavior in animals with unilateral lesions of the nigro-striatal dopamine neurons ([1]; L-DOPA+benserazide 15+5 mg/kg i.p.) | behavioral sensitization, measured as enhanced number of contralateral rotations ([1]; L-DOPA+benserazide 15+5 mg/kg i.p. bid, two separate experiments) |
| --- | --- | --- | --- | --- | --- | --- | --- | --- | --- | --- | --- |
| CCCN1CCC[C@@H](c2cccc(S(C)(=O)=O)c2)C1 [S-(−)-3-[3-(methylsulfonyl)phenyl]-1-propyl-piperidine] | blocked by both doses | in neither experiment did the piperidine derivative antagonize the basal rotational response | did not induce rotational behavior or akinesia by itself | most optimal antagonism occurred when the piperidine derivative was given simultaneously with L-DOPA | did not significantly effect | attenuating | without inducing motor impairment | attenuated | did not appear to effect the brain levels of L-DOPA |  |  |
| N[C@@H](Cc1ccc(O)c(O)c1)C(=O)O [L-DOPA, reference compound] |  |  |  |  |  |  |  |  |  | induces rotational behavior | repeatedly exhibited |
| CS(=O)(=O)c1cccc([C@@H]2CCCNC2)c1 [N-dealkylated metabolite] |  |  |  |  | did not significantly effect |  |  |  |  |  |  |
